# Legend:
# [1] = test system: C. elegans diakinesis oocytes; experiment: Diakinesis oocyte analysis (chromosome condensation, SYP-1, AIR-2, pH3); details: for -1 oocytes showing lack of condensation: BPA
# Excerpt: Proper processing of recombination events is coupled with the formation of mature bivalents during the diakinesis stage such that in mutants where recombination intermediate processing is impaired, bivalent maturation is delayed.
# Associated with the changes in chromatin morphology, the SC is disassembled during late diakinesis in a tightly controlled fashion. Accordingly, SC components, such as SYP-1, are detectable on the short arms of the bivalent in the −3 oocyte but are essentially absent from the bivalents of −2 and −1 oocytes. Thus, whether a delay in chromosome remodeling could correlate with an incomplete disassembly of SC components in late diakinesis was examined.
# Accurate chromosome segregation at meiosis I is characterized by the carefully orchestrated loss of cohesion between homologs coupled with retention of cohesion between sister chromatids. This regulated process involves the targeting of the Aurora-B kinase AIR-2, a member of the chromosomal passenger complex, to the short arm of the bivalents in the −1 oocyte which has been proposed to lead to the removal the meiosis-specific cohesin REC-8 from the short arms of the bivalent. To examine whether these key steps in late meiotic prophase I might be impaired in BPA treated gonads, the localization of AIR-2 in the −1 oocytes was examined. […] Phospho histone H3 (pH3) is a canonical substrate for the activity of AIR-2 [59] and accordingly, although it accumulates in the −3 to −1 oocytes, it is only detected on the short arms of the bivalent in the −1 oocyte in the presence of AIR-2 [56, 57].
# (§1) BPA bears endocrine disrupting activity in many developmental contexts including gonadal, brain and mammary gland development. BPA has affinity for multiple members of the estrogen receptors family, in particular BPA binds to the human estrogen receptor alpha (ERα) and ERβ as well as estrogen-related receptor gamma (ERR-γ) and in C. elegans with nuclear hormone receptor NHR-14 which also binds estrogen. […] Two hallmarks of exposure to BPA were examined, the decrease in the size of the proliferative zone and the condensation defects observed at diakinesis, as they are both highly penetrant and consistent phenotypes. […] Similarly to the experiments described above, the size of the mitotic zone was quantified as well as condensation defects at diakinesis.
# Antibody Staining. DAN staining, immunostaining and analysis of stained meiotic nuclei were performed as in [25] except for ATL-1 and AIR-2 antibodies were dissected gonads were subjected to a 1% fixation method as described in [27]. Antibodies were used at the following dilutions: rabbit α-SYP-1 (1:100), mouse α-RAD-51 (1:100), rabbit α-HTP-3 (1:500), guinea pig α-HIM-8 (1:100), rabbit α-ATL-1 (1:50), rabbit α-AIR-2 (1:100) and rabbit α-pCHK-1 (1:100). The secondary antibodies used were: Cy3 anti-rabbit, FITC anti-guinea-pig and FITC anti-mouse (Jackson Immunochemicals), each at 1:100, Stacks of 0.2 μm slices were captured using a Leica microscope, coupled to the DeltaVision fluorescence microscope system (Applied Precision). The images were projections approximately halfway through 3D data stacks of whole nuclei, except for diakinesis images which encompass entire nuclei.
# C. elegans germline [2] = experiment: Synaptonemal complex and chromatin integrity in transition zone and pachytene (HTP-3, SYP-1, HIM-8, DAPI); assay type: in vivo
# Excerpt: To examine meiotic chromosome synapsis in C. elegans following BPA exposure, assembly of the synaptonemal complex was examined by assessing the localization of the axial element protein HTP-3 (a paralogue of the axial component HIM-3 required for proper synapsis and pairing of homologous chromosomes) and the central region protein SYP-1 [45], as the nuclei enter meiosis. As nuclei exit mitosis and progress into meiosis in wild type germlines, HTP-3 and SYP-1 are assembled onto the chromatin as foci and short tracks which increase in length through the transition zone. By pachytene, the polymerization of the SC is completed and both proteins form fully elongated tracks spanning the entire length of the homologous chromosomes. Following exposure to BPA, the kinetics and extent of assembly of HTP-3 and SYP-1 onto the chromatin during transition zone were not affected when compared to control (n=10 gonads).
# These abnormal nuclei were not simply apoptotic nuclei as they were not specifically found near the bend of the gonad, where germline nuclei were cleared by apoptosis but instead could be found throughout pachytene. As disruption of the integrity of the SC could lead to a separation of the homologous chromosomes, the localization of the X specific pairing center component HIM-8 was examined. In C. elegans, specific loci, termed pairing centers, on chromosomes allow for the physical interaction between homologous pairs. HIM-8 along with other pairing center components associate with the pairing centers and the nuclear envelope and mediate homologous pairing.
# C. elegans germline [3] = experiment: Size of mitotic zone of the germline (DAPI, phospho-histone H3 staining); details: in vivo
# Excerpt: In C. elegans, the germline is comprised of two main compartments, a mitotic region (the premeiotic tip), where nuclei are under the influence of the distal tip cell that maintains them in a proliferative state; and the meiotic region, where nuclei progress through the stages of Prophase I before being fertilized. The mitotic compartment of the worm gonad following BPA exposure was examined.
# as §1
# Growing Conditions and Drug Exposures. Worms were cultured according to [23] at 20° C. on NGM plates without cholesterol. […] Exposure was carried from embryogenesis to adulthood by plating sodium hypochloride treated eggs onto drug and control plates and incubated at 20° C. for four days.
# Antibody Staining. DAN staining, immunostaining and analysis of stained meiotic nuclei were performed as in [25] except for ATL-1 and AIR-2 antibodies were dissected gonads were subjected to a 1% fixation method as described in [27]. […] The secondary antibodies used were: Cy3 anti-rabbit, FITC anti-guinea-pig and FITC anti-mouse (Jackson Immunochemicals), each at 1:100, Stacks of 0.2 μm slices were captured using a Leica microscope, coupled to the DeltaVision fluorescence microscope system (Applied Precision). […]
# in vivo = details: C. elegans
# Method: The internal concentration of free BPA was measured by tandem HPLC analysis (Axys, BC, Canada) following an extensive number of physiological buffer washes and lysis of worms cultured on BPA plates (Materials an Methods).
# C. elegans germline [4] = experiment: ATL-1 and p-CHK1 immunostaining (DNA damage checkpoint); assay type: in vivo
# Excerpt: ATL-1, the C. elegans homologue of mammalian ATM and Rad3-related protein (ATR), accumulates to sites of persistent DSBs during meiosis, and together with CLK-2, acts as a sensor of germ-cell DNA damage which leads to phosphorylation of the checkpoint kinase CHK1 and ultimately apoptosis. To further examine the progression of DSB repair, the levels of ATL-1 and phosphorylated CHK1 (p-CHK1) were monitored throughout the gonad following exposure to BPA.
# [5] = test system: H2B::mCherry; γ-tubulin::GFP transgenic worms; details: OD57 (pie-1::mCherry::H2B; pie-1::GFP::gamma tubulin), C. elegans, in vivo
# Method: 60 first mitosis in ethanol and BPA exposed H2B::mCherry; γ-tubulin::GFP transgenic worms were captured by live imaging. While normal pronuclear fusion and chromosomal alignment and segregation in ethanol controls was observed, the first division of BPA exposed embryos was highly abnormal. […] In some instances, multiple spindle poles were apparent.
# Live Imaging. For live imaging, a pie-1::mCherry::H2B; pie-1::GFP::gamma tubulin OD57 strain was used. The strain was incubated at 25° C. 24 hours prior to imaging. Images were captured using the Leica-Deltavision system described above. Worms were immobilized on an agarose pad by sectioning of the head and images of the first cell division were captured at a rate of one image every 10 seconds for 5 minutes.
smiles,measurement,setting,value
"CC(C)(c1ccc(O)cc1)c1ccc(O)cc1 [BPA, Bisphenol A]",gonads with SYP-1 staining on short arm of bivalent in the -1 oocyte,[1]; BPA exposed gonads,10%
same,-1 oocytes with pH3 staining localized to the bivalents,[1]; BPA treated,14%
same,gonads in which AIR-2 was not detected on the bivalents of -1 oocytes,[1]; BPA treated gonads,100%
same,gonads in which the -1 oocyte did not show normal chromosome condensation,[1]; BPA treated gonads,23%
same,gonads with residual SYP-1 staining on short arm of bivalent in the -2 oocyte,[1]; BPA treated gonads,80%
same,kinetics of pH3 nuclear accumulation in diakinesis oocytes,[1]; BPA treated oocytes,delay in the kinetics of pH3 nuclear accumulation
same,-1 oocytes showing lack of condensation,[1]; one day post-L4,17%
same,-1 oocytes showing lack of condensation,[1]; three days post-L4,28%
same,-1 oocytes showing lack of condensation,[1]; two days post-L4,24%
same,delay in bivalent maturation judged by nuclear morphology,"[1]; all BPA gonads examined, from -1, -2 or -3 oocyte",some level of delay in bivalent maturation
same,pachytene nuclei with DAPI stained bodies or fragments,C. elegans germline [2]; BPA exposure,about 10%
same,kinetics and extent of assembly of HTP-3 and SYP-1 onto chromatin during transition zone,C. elegans germline [2]; BPA exposure vs control,not affected
same,HIM-8 foci per nucleus throughout pachytene,C. elegans germline [2]; BPA treated worms,1 focus per nucleus
same,chromosome synapsis in pachytene nuclei (SYP-1 staining),C. elegans germline [2]; BPA treated worms,defects in chromosome synapsis
same,size of the premeiotic tip a day later,C. elegans germline [3],No significant increase
same,"concentration at 4 days, 1 mM",in vivo,2000 ng/g
same,"elevated RAD-51, ATL-1 or p-CHK1 staining in the mitotic germline nuclei",C. elegans germline [4]; BPA exposure,not observed
same,levels of ATL-1 signal on pachytene nuclei,C. elegans germline [4]; BPA treated vs control,significant increase
same,levels of p-CHK1 signal on pachytene nuclei,C. elegans germline [4]; BPA treated vs control,significant increase
same,one-cell embryos failing to align on the metaphase plate and/or segregate properly,[5],9/60
